Reference: patent US7910559B2, “Decladinosyl-macrolides with anti-inflammatory activity” (GlaxoSmithKline istrazivacki centar Zagreb d.o.o., priority 2005, dated 2011)
Where two headings read alike, the source gives them in different places.

Key:
Type in all cases: cell-based
human IL-6 = assay: Inhibition of IL-6 production by stimulated human peripheral blood leukocytes in vitro (ELISA); settings: Homo sapiens, Leukocyte, PBL, read-out: Percentage of inhibition of IL-6 production; for inhibition at 10 µM: compound 10 μM; for inhibition at 50 µM: compound 50 μM
Method: (§1) Substances, used in in vitro experiments, were dissolved in dimethyl sulfoxide (DMSO) (Kemika, Croatia) at concentrations of 50 mM and 10 mM and were further diluted to the final concentrations of […] in 1 mL Dulbecco's modified Eagle medium (DMEM) supplemented with 1% heat inactivated fetal bovine serum (FBS), 1% glutamax, 50 U/ml penicillin, 50 μg/ml streptomycin and 2.5 μg/mL Fungizone (amphotericin B). Media and all media supplements were purchased from Gibco, Australia, except FBS that was from Sigma, USA.
(§2) Peripheral blood leukocytes (PBL) were obtained from venous blood of healthy volunteers by sedimentation on 2% dextran T-500 (Amersham Biosciences, USA) and subsequent centrifugations of leukocyte-rich plasma.
(§3) Peripheral blood leukocytes (PBL), isolated as described above, were seeded in a 48-well plate at a concentration of 3-5×10^6 cell per well in culture medium consisting of RPMI 1640 medium (Institute of Immunology, Croatia) supplemented with 10% heat-inactivated fetal calf serum (FCS, Biowhittaker, USA), 100 U/ml penicillin (Gibco, Australia), 100 μg/ml streptomycin (Gibco, Australia) and 2 mM L-glutamine (Gibco, Australia), and preincubated with the tested compounds for 2 h at 37° C., in an atmosphere of 5% CO2, and 90% humidity. Afterwards, stimuli (Sigma, USA) were added to a final concentration of 2 μg/mL lipopolysaccharide (LPS), 1 μg/mL phorbol 12-myristate 13-acetate (PMA) or 120 μg/mL zymosan. Samples were incubated overnight under conditions described above. At the end of incubation supernatants were transferred to eppendorf tubes and centrifuged for 10 min at 1500 g. Concentrations of human TNF-α, IL-1β, IL-6 and IL-8 were determined in cell supernatants by sandwich ELISA, using capture and detection antibodies (R&D, USA) according to manufacturer's recommendations.
(§4) Inhibition (as percentage) was calculated using the following formula: % inhibition=(1−concentration of cytokines in sample/concentration of cytokines in positive control)×100 where “positive control” refers to stimulated samples not treated with substances.

human TNF-α = assay: Inhibition of TNF-α production by stimulated human peripheral blood leukocytes in vitro (ELISA); settings: Homo sapiens, Leukocyte, PBL, read-out: Percentage of inhibition of TNF-α production; for inhibition at 10 µM: compound 10 μM; for inhibition at 50 µM: compound 50 μM
Method: as §1, §2, §3, §4

Hep G2 = settings: human, 24 h
Method: (§5) Anti-inflammatory activity of compounds, i.e. observed inhibition of cytokine production and inhibition of proliferation in vitro, is not a consequence of their cytotoxicity.
(§6) Measurement of the succinate dehydrogenase activity in living cells was performed in order to assess the cytotoxicity of compounds of the invention. Cells were cultured for 24 hours in RPMI medium as described above at 37° C., in the presence of the tested compounds at concentrations of 50 μM and 12.5 μM. Afterwards, MTT [3-(4,5-dimethylthiazole-2-yl)-2,5-diphenyl tetrazolium bromide] (Promega, USA) as detection reagent was added and incubated for 0.5-2 hours. The amount of produced MTT-Formazan was determined spectrophotometrically at 490 nm (Mosmann, J. Immunol. Methods, 1983, 65: 55-63).
(§7) Percentage of viable cells was calculated using the following formula: % viable cells=[…]

A549 = settings: human, 24 h
Method: as §5, §6, §7

THP-1 = settings: human, 24 h
Method: as §5, §6, §7

human IL-1β = assay: Inhibition of IL-1β production by stimulated human peripheral blood leukocytes in vitro (ELISA); settings: Homo sapiens, Leukocyte, PBL, read-out: Percentage of inhibition of IL-1β production; for inhibition at 10 µM: compound 10 μM; for inhibition at 50 µM: compound 50 μM
Method: as §1, §2, §3, §4

human IL-8 = assay: Inhibition of IL-8 production by stimulated human peripheral blood leukocytes in vitro (ELISA); settings: Homo sapiens, Leukocyte, PBL, read-out: Percentage of inhibition of IL-8 production; for inhibition at 10 µM: compound 10 μM; for inhibition at 50 µM: compound 50 μM
Method: as §1, §2, §3, §4

Question: Which inhibition at 10 µM (human IL-6; LPS stimulation) does the source give for CC[C@H]1OC(=O)[C@H](C)[C@@H](OC(=O)CCN2CCCN(CCCN3CCCC3)CC2)[C@H](C)[C@@H](O[C@@H]2O[C@H](C)C[C@H](N(C)C)[C@H]2O)[C@](C)(OC)C[C@@H](C)C(=O)N[C@H](C)[C@@H](O)[C@]1(C)O [Example 24, 6-O-Methyl-3-O-decladinosyl-3-O{3-[4-(3-Pyrrolidin-1-yl-propyl)-[1,4]diazepan-1-yl]-propionyl}-9a-aza-9a-homoerythromycin A] here?
Answer: Its inhibition at 10 µM is 8%.

Question: And the inhibition at 50 µM (human IL-6; LPS stimulation)?
Answer: Its inhibition at 50 µM is 98%.

Question: And the inhibition at 10 µM (human IL-6; PMA stimulation)?
Answer: Its inhibition at 10 µM is 48%.

Question: What about the inhibition at 50 µM (human IL-6; PMA stimulation) of the same molecule?
Answer: The inhibition at 50 µM was 89%.

Question: And the inhibition at 10 µM (human IL-6; zymosan stimulation)?
Answer: The inhibition at 10 µM was 33%.

Question: And the inhibition at 50 µM (human IL-6; zymosan stimulation)?
Answer: The inhibition at 50 µM was 100%.

Question: And the inhibition at 10 µM (human TNF-α; LPS stimulation)?
Answer: The inhibition at 10 µM was 0%.

Question: And the inhibition at 50 µM (human TNF-α; LPS stimulation)?
Answer: The inhibition at 50 µM was 91%.

Question: What about the inhibition at 10 µM (human TNF-α; PMA stimulation) of the same molecule?
Answer: The inhibition at 10 µM was 65%.

Question: What about the inhibition at 50 µM (human TNF-α; PMA stimulation) of the same molecule?
Answer: Its inhibition at 50 µM is 68%.

Question: What about the inhibition at 10 µM (human TNF-α; zymosan stimulation) of the same molecule?
Answer: Its inhibition at 10 µM is 0%.

Question: And the inhibition at 50 µM (human TNF-α; zymosan stimulation)?
Answer: Its inhibition at 50 µM is 92%.

Question: What about the “Percentage of viable cells after treatment” value (“Percentage of viable cells” below) (Hep G2; 12.5 μM) of the same molecule?
Answer: Its value is greater than 95%.

Question: And the “Percentage of viable cells” value (Hep G2; 50 μM)?
Answer: The value was 100%.

Question: What about the “Percentage of viable cells” value (A549; 12.5 μM) of the same molecule?
Answer: Its value is greater than 90%.

Question: And the “Percentage of viable cells” value (A549; 50 μM)?
Answer: The value was greater than 90%.

Question: What about the “Percentage of viable cells” value (THP-1; 12.5 μM) of the same molecule?
Answer: The value was 100%.

Question: What about the “Percentage of viable cells” value (THP-1; 50 μM) of the same molecule?
Answer: The value was 100%.

Question: And the inhibition at 10 µM (human IL-1β; LPS stimulation)?
Answer: The inhibition at 10 µM was 65%.

Question: And the inhibition at 50 µM (human IL-1β; LPS stimulation)?
Answer: The inhibition at 50 µM was 98%.

Question: What about the inhibition at 10 µM (human IL-1β; PMA stimulation) of the same molecule?
Answer: Its inhibition at 10 µM is 84%.

Question: And the inhibition at 50 µM (human IL-1β; PMA stimulation)?
Answer: Its inhibition at 50 µM is 98%.

Question: What about the inhibition at 10 µM (human IL-1β; zymosan stimulation) of the same molecule?
Answer: The inhibition at 10 µM was 70%.

Question: And the inhibition at 50 µM (human IL-1β; zymosan stimulation)?
Answer: The inhibition at 50 µM was 100%.

Question: What about the inhibition at 10 µM (human IL-8; LPS stimulation) of the same molecule?
Answer: The inhibition at 10 µM was 0%.

Question: And the inhibition at 50 µM (human IL-8; LPS stimulation)?
Answer: The inhibition at 50 µM was 94%.

Question: And the inhibition at 10 µM (human IL-8; PMA stimulation)?
Answer: The inhibition at 10 µM was 3%.

Question: What about the inhibition at 50 µM (human IL-8; PMA stimulation) of the same molecule?
Answer: The inhibition at 50 µM was 81%.

Question: And the inhibition at 10 µM (human IL-8; zymosan stimulation)?
Answer: Its inhibition at 10 µM is 0%.

Question: And the inhibition at 50 µM (human IL-8; zymosan stimulation)?
Answer: Its inhibition at 50 µM is 92%.
